Experimental data from patent US9918983B2, “Suicidal LSD1 inhibitors targeting SOX2-expressing cancer cells” (THE BOARD OF REGENTS OF THE NEVADA SYSTEM OF HIGHER …, priority 2013, dated 2018).

Assays:
acetylated H4K16 = test: H4K16 acetylation in HeLa cells (Western blotting); assay type: cell-based, human; conditions: VPA 1 μM or MS-275 2 μM 24 h, TSA 40 nM 16 h
Procedure: Referring to FIG. 31B, the acetylation of H4K16 is sensitive to pan-HDAC inhibitors in HeLa cells. F9 and HeLa cells were treated with the HDAC inhibitor VPA (1 μM) or MS-275 (2 μM) for 24 h or TSA (40 nM) for 16 h. Methylated and acetylated histones H3 and H4 were blotted by specific antibodies, as indicated, and quantified by the use of Gel-Pro Analyzer (version 4.0) software.

A549 cells = test: Cell cycle analysis by FACS in A549 cells; assay type: cell-based, human; conditions: 50 nM siRNA
Procedure: (§1) The fluorescence-activated cell sorting (FACS) and 3-(4,5-dimethyl-2-thiazolyl)-2,5-diphenyl-2H-tetrazolium bromide (MTT) assays were conducted as described previously (Lan, R., et al. (2012) Lab. Invest. 92, 1503-1514). To synchronize PA-1 and F9 cells at the G1/S phase transition, cells were treated with 2.5 mM thymidine for 12 h, released into fresh medium for 6 h, and blocked again with 2.5 mM thymidine for an additional 12 h. The cell cycle arrest was analyzed by FACS. For differentiation, F9 and PA-1 cells were seeded in 6-well plates at a density of 1×10^4 cells per well and supplemented with 5 μM RA for 3 days. Cells were then recultured in fresh medium without RA for another 2 days, and the cell cycle was analyzed on a BD FACSCalibur cell sorter using the CellQuest program (Becton, Dickinson, Mountain View, Calif.). The percentages of cells in G1, S, and G2/M phases were determined by the use of ModFit LT software.
(§2) Referring to FIG. 9C, Sox2-expressing A549, IGROV1, T47D and Sox2-negative H1437 cells were transfected with 50 nM luciferase (Luc) or LSD1 specific siRNAs for 60 hours and the cell cycle was analyzed by flow-cytometry (FACS).
(§3) Referring to FIG. 17A, Sox2-expressing A549, IGROV1, and T47D and Sox2-negative H1437 cells were transfected with luciferase and Sox2 specific siRNAs for 48 hours. The cell cycles of these cells after Sox2 ablation were analyzed by flow-cytometry.

IGROV1 cells = test: Cell cycle analysis by FACS in IGROV1 cells; assay type: cell-based, human; conditions: 50 nM siRNA
Procedure: as §1, §2, §3

T47D cells = test: Cell cycle analysis by FACS in T47D cells; assay type: cell-based, human; conditions: 50 nM siRNA
Procedure: as §1, §2, §3

H1437 cells = test: Cell cycle analysis by FACS in H1437 cells; assay type: cell-based, human; conditions: 50 nM siRNA
Procedure: as §1, §2, §3

LSD1 = target: T1, LSD1 (Homo sapiens, UniProt O60341); test: LSD1 activity (LSD1 IC50, Table 7, FIG. 2); assay type: cell-based
T1 construct: LSD1 activity determined in a cell-based assay as described herein; endogenous in cells
Procedure: For a typical deacetylation assay, 1 μg rHDAC1 or 1 μg immunoprecipitated endogenous HDAC1-protein A complexes (from two 10-cm dishes) was incubated with 0.4 μg H4K16ac peptide in the presence or absence of 50 μM CBB1007 or 2 μM MS-275 at 30° C. for 1 h. The percentages of deacetylated products were analyzed by mass spectrometry, and the data were analyzed by GraphPad Prism (version 5) software. The reaction products were analyzed by mass spectrometry to separate the peptide substrate (H4K16ac) and the product (H4K16), as previously described (Wang, J., et al. (2011) Cancer Research 71, 7238-7249). For a typical demethylation assay, 0.4 μg H3K4me2 substrate peptide was incubated individually with 1 μg recombinant LSD1 (rLSD1) or 1 μg immunoprecipitated LSD1-protein A complex in the presence or absence of 50 μM CBB1007 or 2 μM MS-275 at 30° C. for 1 h. The reaction products were analyzed by mass spectrometry to separate the products (H3K4me1 and H3K4) from the substrate (H3K4me2), as previously described (Wang, J., et al. (2011) Cancer Research 71, 7238-7249).
Table 7 below lists specific compounds and LSD1 activity determined in a cell-based assay as described herein (see also FIGS. 2A and 2B).

[1] = test system: histone H3 and H4 methylation and acetylation; test: Histone modifications in F9 cells (Western blotting); assay type: cell-based, mouse
Procedure: To quantify and compare the protein band densities in the Western blots shown in the figures, a titration by serial dilution of the siRNA protein samples for mES cell lysates was used as a reference. The concentration of titration samples was measured by use of a NanoDrop 2000 apparatus, and the protein concentration of all titration samples was adjusted to 1 μg/μL. The protein samples were loaded onto an SDS-polyacrylamide gel at levels ranging from 1 μg to 13 μg at 2-μg intervals and immune blotted with each antibody, including anti-LSD1, anti-HDAC1, and anti-histone H3 antibodies, with three independent loadings. The Western blots were developed with exposure times ranging from 30 s to 1 min. The exposure density of each band was scanned by Adobe Photoshop Elements (version 4.0) software using a CanonScan 8600F scanner (Canon, Calif.) and was subsequently quantified by use of the area density tool of Gel-Pro Analyzer (version 4.0) software (Media Cybernetics, Inc.) and plotted. The regression analysis of each signal was performed by use of the Microsoft Excel program's Analysis Tool Pak regression option. […] The amount of the protein band in the Western blot shown in the figures was quantified by scanning, as described for the reference titration. […] The quantity of protein band densities between two protein samples was externally corrected by use of the reference plots. […] The statistical differences between the experimental and control groups were analyzed by one-way analysis of variance (ANOVA). […]
Referring to FIG. 28D, time course analyses of the effects of 50 μM LSD1 inhibitor CBB1007 on histone modifications in F9 cells are shown, but with a shorter time course than above. The mean density of each band was quantified by the use of Gel-Pro Analyzer (version 4.0) software, and error bars represent SEMs for duplicate samples. […] The statistical differences were analyzed by one-way ANOVA. *, P_0.05; **, P_0.01. […]

[2] = target: T2, recombinant HDAC1 (GST-HDAC1) (Homo sapiens, UniProt Q13547); test: In vitro deacetylation assay, recombinant HDAC1, H4K16ac peptide; assay type: biochemical; conditions: 50 μM CBB1007 or 2 μM MS-275
T2 construct: Human LSD1 and HDAC1 full-length cDNAs were obtained from Open Biosystems; GST (N, cleaved yes); made in house; host or cells: Escherichia coli BL21
Source text: Human LSD1 and HDAC1 full-length cDNAs were obtained from Open Biosystems. […] These cDNAs were fully sequenced and cloned into the pGEX-KG or pET28a vector and expressed as the glutathione S-transferase (GST)- or His-tagged fusion proteins in the Escherichia coli BL21 strain and affinity purified with glutathione or Ni-Sepharose (GE Healthcare, United Kingdom) resin. […] The GST tag and uncut GST-HDAC1/GST-LSD1 proteins were depleted by glutathione-Sepharose. For the reconstitution reaction, recombinant GST-CoREST, His-LSD1, and recombinant HDAC1 (rHDAC1) (GST was removed by the use of PreScission protease) (10 μg) were assembled into the LSD1-CoREST-HDAC1 complex and then pulled down by GSTSepharose resins. Protein A-Sepharose was used as a negative-control resin.

HDAC1-protein A complex = target: T3, HDAC1-protein A complex (Mus musculus, UniProt O09106); test: In vitro deacetylation assay, immunoaffinity-purified HDAC1-protein A complex from F9 cells; assay type: biochemical
T3 construct: 1 μg immunoprecipitated endogenous HDAC1-protein A complexes; endogenous in cells; host or cells: F9 mouse teratocarcinoma cells, anti-HDAC1 immunoprecipitate on protein A-Sepharose
Source text: (§4) The immunocomplexes were captured by protein A-Sepharose. Isolated LSD1-protein A or HDAC1-protein A complexes were verified by Western blotting with LSD1 and HDAC1 antibodies.

[3] = target: T4, recombinant LSD1 (GST-LSD1) (Homo sapiens, UniProt O60341); test: In vitro demethylation assay, recombinant LSD1, H3K4me2 peptide; assay type: biochemical; conditions: H3K4me2 peptide, LSD1 and HDAC1 without CoREST
T4 construct: Human LSD1 and HDAC1 full-length cDNAs were obtained from Open Biosystems; GST (N, cleaved yes); made in house; host or cells: Escherichia coli BL21
Source text: H3K4me2 and H4K16ac were purchased from AnaSpec and Shanghai Science Peptide Biological Technology Co., Ltd., respectively. Human LSD1 and HDAC1 full-length cDNAs were obtained from Open Biosystems. Human CoREST cDNA was amplified by reverse transcription-PCR (RT-PCR) using mRNA isolated from HeLa cells. These cDNAs were fully sequenced and cloned into the pGEX-KG or pET28a vector and expressed as the glutathione S-transferase (GST)- or His-tagged fusion proteins in the Escherichia coli BL21 strain and affinity purified with glutathione or Ni-Sepharose (GE Healthcare, United Kingdom) resin. […]
For a typical deacetylation assay, 1 μg rHDAC1 or 1 μg immunoprecipitated endogenous HDAC1-protein A complexes (from two 10-cm dishes) was incubated with 0.4 μg H4K16ac peptide in the presence or absence of 50 μM CBB1007 or 2 μM MS-275 at 30° C. for 1 h. The percentages of deacetylated products were analyzed by mass spectrometry, and the data were analyzed by GraphPad Prism (version 5) software. The reaction products were analyzed by mass spectrometry to separate the peptide substrate (H4K16ac) and the product (H4K16), as previously described (Wang, J., et al. (2011) Cancer Research 71, 7238-7249). […]

LSD1-protein A complex = target: T5, LSD1-protein A complex (Mus musculus, UniProt Q6ZQ88); test: In vitro demethylation assay, immunoaffinity-purified LSD1-protein A complex from F9 cells; assay type: biochemical
T5 construct: recombinant and endogenous LSD1 complexes isolated from F9 cells; endogenous in cells; host or cells: F9 mouse teratocarcinoma cells, anti-LSD1 immunoprecipitate on protein A-Sepharose
Source text: as §4

[4] = target: T6, LSD1-CoREST-HDAC1 complex (Homo sapiens, UniProt O60341+Q13547); test: Reconstituted LSD1-CoREST-HDAC1 complex on oligonucleosomes; assay type: biochemical; conditions: 50 μM CBB1007 or 2 μM MS-275
T6 construct: Human LSD1 and HDAC1 full-length cDNAs were obtained from Open Biosystems; GST (N, cleaved yes); made in house; host or cells: Escherichia coli BL21
Procedure: For the reconstitution reaction, recombinant GST-CoREST, His-LSD1, and recombinant HDAC1 (rHDAC1) (GST was removed by the use of PreScission protease) (10 μg) were assembled into the LSD1-CoREST-HDAC1 complex and then pulled down by GSTSepharose resins. Protein A-Sepharose was used as a negative-control resin.
Briefly, cells (1×10^6) were washed twice with ice-cold hypotonic buffer (20 mM potassium-HEPES, pH 7.8, 5 mM potassium acetate, 0.5 mM MgCl2, 0.5 mM DTT), swelled, and disrupted with 25 strokes in a Dounce homogenizer using a tightfitting pestle. Nuclei were pelleted at 4,000 rpm for 5 min and resuspended in buffer A (20 mM HEPES, pH 7.9, 1.5 mM magnesium acetate, 50 mM potassium acetate, 10% glycerol, 0.5 mM DTT, 150 mM NaCl, protease and phosphatase inhibitors). […] The chromatin pellet was resuspended in 0.5 mL buffer B (0.32 M sucrose, 50 mM Tris-HCl, pH 7.5, 4 mM MgCl2, 1 mM CaCl2, 0.1 mM phenylmethylsulfonyl fluoride) and incubated with 30 units of micrococcal nuclease for 10 min at 37° C. The digested samples were centrifuged at 8,000×g for 10 min, and the supernatant, which contained oligonucleosomes, was recovered.
The reaction products (demethylated or deacetylated histones) were analyzed by Western blotting.

T2 sequence (Q13547 whole entry): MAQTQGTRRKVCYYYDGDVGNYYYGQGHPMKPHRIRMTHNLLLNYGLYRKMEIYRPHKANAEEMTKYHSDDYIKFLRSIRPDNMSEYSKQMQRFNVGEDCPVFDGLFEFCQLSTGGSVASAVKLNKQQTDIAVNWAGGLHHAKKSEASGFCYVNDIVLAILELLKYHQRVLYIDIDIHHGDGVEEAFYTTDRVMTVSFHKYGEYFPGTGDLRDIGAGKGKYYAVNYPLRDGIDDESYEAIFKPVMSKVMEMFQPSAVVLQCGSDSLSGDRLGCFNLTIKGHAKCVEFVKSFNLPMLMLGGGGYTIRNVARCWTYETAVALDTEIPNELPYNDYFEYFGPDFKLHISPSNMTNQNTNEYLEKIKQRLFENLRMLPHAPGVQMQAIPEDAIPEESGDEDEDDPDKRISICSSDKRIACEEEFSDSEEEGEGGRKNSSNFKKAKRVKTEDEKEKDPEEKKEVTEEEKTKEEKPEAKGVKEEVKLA

Compound: CCCC(CCC)C(=O)O [VPA, valproic acid]
- acetylated H4K16 level (acetylated H4K16): induced the accumulation of acetylated H4K16

Compound: Sox2 siRNA: siRNA, human Sox2: CGCUCAUGAAGAAGGAUAA (SEQ ID NO:2) (listed as RNA, chemistry not given here)
- cell cycle population G0/G1 (A549 cells): 76.40%
- cell cycle population G2/M (A549 cells): 0.19%
- cell cycle population S (A549 cells): 23.41%
- cell cycle population G0/G1 (IGROV1 cells): 74.62%
- cell cycle population G2/M (IGROV1 cells): 12.52%
- cell cycle population S (IGROV1 cells): 12.87%
- cell cycle population G0/G1 (T47D cells): 74.65%
- cell cycle population G2/M (T47D cells): 10.86%
- cell cycle population S (T47D cells): 14.48%
- cell cycle population G0/G1 (H1437 cells): 39.39%
- cell cycle population G2/M (H1437 cells): 35.51%
- cell cycle population S (H1437 cells): 25.10%

Compound: CN1CCN(CCN[C@@H]2C[C@H]2c2ccc(OCc3ccccc3)cc2)CC1 [Compound 2]
- IC50 (LSD1): 31.4 µM

Compound: N[C@@H]1C[C@H]1c1ccc(OCc2ccccc2)cc1 [Compound 3]
- IC50 (LSD1): 39.4 µM

Compound: Nc1ccccc1NC(=O)c1ccc(CNC(=O)OCc2cccnc2)cc1 [MS-275]
- H4K16 acetylation of oligonucleosomes from treated cells [1]: hyperacetylated on H4K16
- deacetylase activity of recombinant HDAC1 [2]: inhibited
- deacetylase activity of immunoaffinity-purified HDAC1 (HDAC1-protein A) (HDAC1-protein A complex): sensitive
- LSD1 activity in the absence of CoREST [3]: not sensitive
- demethylation activity of immunoaffinity-purified LSD1 (LSD1-protein A) (LSD1-protein A complex): blocked the demethylation activity
- HDAC1 deacetylase activity in the reconstituted complex [4]: blocking the HDAC1 activity
- LSD1 demethylase activity in the reconstituted complex [4]: partially inhibit the LSD1 demethylase activity
- acetylated H4K16 level (acetylated H4K16): induced the accumulation of acetylated H4K16

Compound: LSD1 siRNA: siRNA, human LSD1: GGAAGAAGAUAGUGAAAAC (SEQ ID NO:1) (listed as RNA, chemistry not given here)
- cell cycle population G0/G1 (A549 cells): 74.81%
- cell cycle population G2/M (A549 cells): 0.65%
- cell cycle population S (A549 cells): 24.55%
- cell cycle population G0/G1 (IGROV1 cells): 78.07%
- cell cycle population G2/M (IGROV1 cells): 8.56%
- cell cycle population S (IGROV1 cells): 13.37%
- cell cycle population G0/G1 (T47D cells): 76.34%
- cell cycle population G2/M (T47D cells): 12.17%
- cell cycle population S (T47D cells): 11.49%
- cell cycle population G0/G1 (H1437 cells): 37.28%
- cell cycle population G2/M (H1437 cells): 37.75%
- cell cycle population S (H1437 cells): 24.97%

Compound: CC(/C=C/C(=O)NO)=C\[C@@H](C)C(=O)c1ccc(N(C)C)cc1 [TSA, trichostatin A]
- acetylated H4K16 level (acetylated H4K16): induced the accumulation of acetylated H4K16
